Results as given in patent US20110300246A1, “Herbal Extracts for Treatment of Diabetic Complications and Oxidative Stress” (priority 2010, published 2011).

Columns and labels:
[1] = system: STZ-diabetic rats; assay: Renal oxidative stress (SOD activity, MDA) in STZ-diabetic rats; assay type: in vivo, rat; settings: renal cortical tissue, 12 weeks, mean ± SD, n=8
Experimental: (§1) Male Sprague-Dawley male rats, weighing 200-250 g, aged 8-10 weeks, were used. Diabetes was induced by administration of streptozotocin (STZ, Sigma-Aldrich, USA) in 0.1 mol/L sodium citrate (pH 4.5) at a dose of 55 mg/kg intraperitoneally. After 48 hours injection, blood glucose levels of the animals were examined using glucose meter. The induction of diabetes was confirmed when the blood glucose level was greater than 300 mg/dl. Animals were maintained in diabetic conditions for 2 weeks without any treatment and blood glucose was determined every week to ensure the subsistence of diabetes. Animals with uncertain blood glucose levels or blood glucose exceeding 600 mg/dl were excluded from the study.
(§2) HEM was suspended in 1% carboxymethylcellulose (CMC) before use. Aminogunidine was dissolved in water first and then added into 1% CMC before use. […] The diabetes-induced and the normal control groups consisted of 8 animals of each. […]
For measurements of SOD activity and MDA contents, the renal cortical tissues were homogenized in a buffer solution (0.25 M sucrose, 0.5 mM EDTA, 50 mM HEPES, protease inhibitors) on ice and centrifuged at 4° C. at 12,000 rpm for 20 min. The supernatants were collected and analyzed with corresponding assay kits (Nanjing Jiancheng Shengwu Yanjiu Suo, Nanjing, China) according to the manufacturer's instructions, […]

[2] = system: STZ-diabetic rats; assay: 24-hr urinary albumin excretion in STZ-diabetic rats; assay type: in vivo, rat; settings: 12 weeks, P<0.01, FIG. 8
Experimental: as §1
as §2, with “each. The initial body weights and blood glucose levels of the diabetic animals were similar among the three groups.” for “each.”
Development of albuminuria is a cardinal manifestation of glomerular injury and a pathological factor in the progression of renal dysfunction. […] The levels of urinary albumin were quantified using a commercial assay kit (Guangzhou WhiJa Technology, Inc. Guangzhou, China), according to the manufacturer's instructions.

[3] = system: STZ-diabetic rats; assay: AGE levels in the kidney cortex of STZ-diabetic rats; assay type: in vivo, rat; settings: 12 weeks, mean ± SD, n=8
Experimental: as §1
(§3) HEM was suspended in 1% carboxymethylcellulose (CMC) before use. Aminogunidine was dissolved in water first and then added into 1% CMC before use. […] The diabetes-induced and the normal control groups consisted of 8 animals of each. The initial body weights and blood glucose levels of the diabetic animals were similar among the three groups. […] The normal control group and the diabetic control group were administered with equivalent volume of CMC daily for 12 weeks. The standard rat diet and water were available ad libitum throughout the entire treatment period. […]

[4] = system: STZ-diabetic rats; assay: Body weight gain and general well-being in STZ-diabetic rats, 12 weeks treatment; assay type: in vivo, rat
Experimental: as §1
as §3, with “weeks.” for “weeks. The standard rat diet and water were available ad libitum throughout the entire treatment period.”
The general behavioral status of the animals (i.e. locomotor activity, alertness to environmental changes) was observed every day, and the body weight and food intake were measured weekly.

[5] = system: STZ-induced diabetic rats; assay: AGE-fluorescence in the pancreas of STZ-diabetic rats; assay type: in vivo, rat; settings: 12 weeks treatment, FIG. 3
Experimental: as §1, with “Animals with uncertain blood glucose levels or blood glucose exceeding 600 mg/dl were excluded from the study.” left out
Minced pancreatic tissue was delipidated with chloroform and methanol (2:1,v/v) overnight. […] The amounts of AGEs in these alkali-soluble samples were determined by measuring the fluorescence at an emission wavelength of 440 nm and an excitation wavelength at 370 nm using a fluorescence Spectrophotometer. A native bovine serum albumin (BSA) preparation (1 mg/ml of 0.1 N NaOH) was used as a standard, and its fluorescence intensity was defined as one arbitrary unit (AU). The fluorescence values of samples were measured at a protein concentration of 1 mg/ml and expressed in arbitrary unit (AU) compared with a native BSA preparation. Sample protein concentrations were determined using Bradford method.

[6] = system: STZ-diabetic rats; assay: Fluorescent AGEs and CML-AGE in the descending aorta of STZ-diabetic rats; assay type: in vivo, rat; settings: 12 weeks, FIG. 6 and FIG. 7
Experimental: as §1, §3

[7] = system: STZ-induced diabetic rats; assay: Immunohistochemical staining for insulin in pancreatic islets of STZ-diabetic rats; assay type: in vivo, rat; settings: 12 weeks treatment, FIG. 2
Experimental: as §1, §3

[8] = system: bovine serum albumin (BSA)-AGEs formation; assay: Glucose and methylglyoxal induced BSA-AGEs formation in vitro (fluorescence); assay type: biochemical; settings: BSA + 2 mM methylglyoxal + 200 mM glucose, 37° C., 7 days
Experimental: Glucose and Methylglyoxal induced bovine serum albumin (BSA)-AGEs formation is used to test the inhibitory effects of the inventive single herbal extract and mixed herbal extracts on the formation of AGEs in vitro.
Methods: As a protein source, BSA (Sigma-Aldrich, St. Louis, Mo., USA) was dissolved in 50 mM phosphate buffer (pH 7.4) to a concentration of 10 mg/ml. As a sugar source, a mixture of 2 mM methylglyoxal and 200 mM glucose (sigma-Aldrich, St. Louis, Mo., USA) was used. This sugar mixture was added to the prepared BSA solution for use in tests. […] Aminoguanidine (AG), a positive control drug, was tested in the same manner except that AG was dissolved in distilled water. As a negative control group, a culture consisting of BSA, the sugar mixture and 10% Tween80 was cultured. As blanks to the control and test groups, the materials for the test group and the materials for the control group were used after preparation without incubation. Five samples for each group were used to reduce errors to the lowest possible extent. After 7 days incubation, the amounts of AGEs in test samples were determined by measuring the fluorescence at an emission wavelength of 440 nm and an excitation wavelength at 370 nm using a fluorescence Spectrophotometer. The inhibition (%) of the formation of AGEs was calculated according to the following equation:
Inhibition (%) of production=100−[(fluorescent intensity of test group−fluorescent intensity of blank to test group)/(fluorescent intensity of control group−fluorescent intensity of blank to control group)]×100.

## N=C(N)NN [Aminoguanidine, aminoguanidine]
[1]
  Renal MDA: 8.82 ± 1.92 μM/mg protein
  Renal SOD activity: 1.78 ± 0.42 Unit/mg protein
[2]
  reduction of 24-hr urinary albumin excretion compared with STZ-diabetic control group: 37.3%
[3]
  AGE-fluorescence in the kidney cortex: 3.4 ± 0.5 AU/mg protein
  CML-AGE in the kidney cortex: 262.8 ± 55.4 ng/mg protein
[4]; 12 weeks oral treatment
  body weight increase by the end of the experiment: 44.0 g
[4]; oral gavage daily 12 weeks, HEM 500 mg/kg, AG 50 mg/kg, mean ± SD, n=8
  Body weight (g) (after treatment): 258.6 ± 8.1 g
[5]
  pancreatic level of AGEs (fluorescence): effectively lowered
[6]
  accumulation of AGEs (fluorescent AGEs and CML-AGE) in the descending aorta: effectively reduced
[7]
  insulin immunostaining in the pancreatic islets: no evident effect
[8]; 12.5 mcg/ml
  Inhibition (%) of the formation of AGEs: 19.6 ± 3.6%
[8]; 25 mcg/ml
  Inhibition (%) of the formation of AGEs: 31.7 ± 3.5%
[8]; 50 mcg/ml
  Inhibition (%) of the formation of AGEs: 44.8 ± 2.9%
[8]; 100 mcg/ml
  Inhibition (%) of the formation of AGEs: 69.9 ± 3.5%
